{"source": "patent US20070066682A1", "about": "“Arylalkylamine vanadium (V) salts for the treatment and/or prevention of Diabetes mellitus” (priority 2005, published 2007)", "key": {"[1]": {"test": "Tolerability in treated animals", "assay_type": "in vivo"}, "adipocyte lipolysis": {"tested_on": "adipocyte lipolysis", "test": "Adipocyte lipolysis", "assay_type": "cell-based"}, "db/db mice": {"tested_on": "db/db mice", "test": "Chronic treatment of obese diabetic db/db mice, glycemia", "assay_type": "in vivo, mouse", "method": "(§1) Male Wistar rats weighting 180-220 g were purchased from Harlan (Interfauna Ibèrica S.A., Spain). Diabetes was induced by a single intraperitoneal injection of a freshly prepared solution of streptozotocin (in some studies the dose was 45 mg/kg body weight and in some others 100 mg/kg body weight dissolved in 50 mM citrate buffer, pH 4.5). Only diabetic animals with glycemia above 300 mg/dl were used. The animals were housed in animal quarters at 22° C., with a 12 h light/12 h dark cycle and were fed ad libitum. All procedures used were approved by the animal ethical committee of the University of Barcelona, Spain. Male mice C57 BL/Ks bearing the db/db mutation (Jackson Laboratories, Bar Harbor, Me.) were purchased from Harlan France (Gannat, France). C57BL/6J male mice were assigned for 16 weeks to very high-fat diet containing (in kcal): 72% from fat, 28% from proteins and <1% from carbohydrates (Burcelin et al., 2002, Am. J. Physiol. Endocrinol. Metab 282: E834-E842)."}, "[2]": {"tested_on": "streptozotocin-induced diabetic rats", "test": "Chronic oral treatment of streptozotocin (45 mg/kg) diabetic rats, glycemia", "assay_type": "in vivo, rat", "method": "as §1\n(§2) Osmotic minipumps delivering B6V10 (2.5 μmol/kg body wt/day) or decavanadate (2.5 μmol/kg body wt/day) were implanted subcutaneously in diabetic rats anaesthetised by ketamine hydrochloride (95 mg/kg) and xylasine (10 mg/kg). […] Glycemia was measured on arterio-venous blood collected from the tail vessels at 09:00 am for two weeks, before the administration of vanadate. Insulin concentrations were determined before and after treatment. In another set of experiments, B6V10 was orally administered at a single dose of 5 μmol/kg/day during the first week and 10 μmol/kg/day during 2 additional weeks by gastric gavage. A control group received the corresponding decavanadate salt in the absence of benzylamine. At the end of the treatment, animals were sacrificed and the liver, fat pad, heart and lung were kept at −80° C. and the plasma at −20° C. until their use for in vitro analysis.\n(§3) In glucose tolerance tests and in chronic treatments, circulating glucose concentrations were determined by a rapid glucose analyser (Accutrend® Sensor Comfort, Roche, Basel. Switzerland). Plasma insulin (IRI) concentration was determined by ELISA method using a kit obtained from Crystal Chem Inc. (Downers Grove, Ill.). Plasma triglycerides (Biosystems, Barcelona, Spain) and NEFAS (Wako Chemicals, Neuss, Germany) were determined with standard […] methods.\nThe effect of the oral administration of hexaquis(benzylammonium) decavanadate on glycemia from diabetic rats was also studied. Diabetes was induced in rats by intravenous administration of streptozotocin, and subsequently, a hexaquis(benzylammonium) decavanadate or sodium decavanadate unique dose was administered to the rats. […] After seven days of treatment, the dose was increased at 10 μmol/kg/day which was maintained for an additional ten days. […] Thus, glycemia in sodium decavanadate treated rats was approximately 450 mg/dl and glycemia of hexaquis(benzylammonium) decavanadate treated rats was approximately 250 mg/dl.\n(§4) Chronic in vivo efficacy of B6V10 was evaluated in streptozotocin-induced diabetic rats and in db/db mice. Streptozotocin-induced (45 mg/kg) diabetic rats were subcutaneously treated with hexaquis(benzylammonium) decavanadate (2.5 μmol/kg) (B6V10, solid squares, FIG. 8A) or with decavanadate (2.5 μmol/kg) (V10, open circles, FIG. 8A) delivered subcutaneously by osmotic minipumps implanted in the dorsal region. Diabetic rats were also sham-operated (untreated, solid diamonds, FIG. 8A). […] These experiments were repeated using an oral administration protocol. Streptozotocin-induced (45 mg/kg) diabetic rats were orally treated with hexaquis(benzylammonium) decavanadate (5 μmol/kg from day 0 to day 7 and 10 μmol/kg/day from day 7 to day 17) (B6V10, solid squares, FIG. 8B) or received decavanadate (10 μmol/kg) (V10, open circles, FIG. 8B). Nondiabetic rats were also untreated (solid triangles, FIG. 8B)."}, "[3]": {"tested_on": "mice made glucose intolerant by a high fat diet", "test": "Glucose tolerance and plasma insulin in high-fat fed mice, acute administration", "assay_type": "in vivo, mouse", "conditions": "dihydrate", "method": "Male Wistar rats weighting 180-220 g were purchased from Harlan (Interfauna Ibèrica S.A., Spain). Diabetes was induced by a single intraperitoneal injection of a freshly prepared solution of streptozotocin (in some studies the dose was 45 mg/kg body weight and in some others 100 mg/kg body weight dissolved in 50 mM citrate buffer, pH 4.5). Only diabetic animals with glycemia above 300 mg/dl were used. The animals were housed in animal quarters at 22° C., with a 12 h light/12 h dark cycle and were fed ad libitum. All procedures used were approved by the animal ethical committee of the University of Barcelona, Spain. […]\nas §3\nInsulin and glucose responses during the glucose tolerance test were calculated as the incremental plasma values integrated over a period of 120 min after injection of glucose. […] Data distribution was analyzed by the Kolmogorov-Smirnov test. […]"}, "[4]": {"tested_on": "streptozotocin-induced diabetic rats", "test": "Chronic subcutaneous (osmotic minipump) treatment of streptozotocin (45 mg/kg) diabetic rats, glycemia", "assay_type": "in vivo, rat", "conditions": "for glycemia during chronic subcutaneous treatment: 2.5 μmol/kg/day by osmotic minipumps, about two weeks, STZ 45 mg/kg rats, dihydrate", "method": "as §1, §2, §3\nThe effect of chronic administration of hexaquis(benzylammonium) decavanadate on glycemia from diabetic rats was determined. Thus, diabetes was induced in rats by intravenous administration of streptozotocin, which destroys the β-pancreatic cells that produce insulin.\nas §4, with “Nondiabetic rats were also untreated (solid triangles, FIG. 8B).” left out"}, "diabetic rats": {"tested_on": "diabetic rats", "test": "Plasma free fatty acids, triglycerides and cholesterol of diabetic rats", "assay_type": "in vivo, rat", "method": "as §3"}, "insulin receptor": {"tested_on": "insulin receptor", "test": "Tyrosine phosphorylation of insulin receptor in isolated rat adipocytes", "assay_type": "cell-based", "conditions": "25 μM", "method": "Isolated fat cells were disrupted for total membrane preparation by hypo-osmotic lysis in a 20 mM HES buffer and an antiprotease and antiphosphatase cocktail as reported by Abella et al. (2003, Diabetes 52: 1004-1013). Protein concentrations were determined by the Bradford method (Bradford, 1976, Anal. Biochem. 72: 248-254) with gamma-globulin as protein concentration standard. Immunoprecipitation and immunoblot assays were performed as previously described by Abella et al. (2004, Id.) with the use of a monoclonal antiphosphotyrosine antibody for the immunoprecipitation and an anti-insulin receptor antibody for immunoblotting, respectively. SDS-polyacrylamide gel electrophoresis was performed on membrane proteins following conventional procedures. Proteins were transferred to Immobilon and immunoblotting was performed as reported by Castello et al. (1994, J. Biol. Chem. 269: 5905-5912).\nThe mechanism of action of B6V10 was investigated in isolated rat adipocytes. Adipose cells from Wistar rats were incubated for different times in the presence of 25 μM hexaquis(benzylammonium) decavanadate (B6V10). […] Subsequently, 2-deoxyglucose uptake (results shown in FIG. 7A), tyrosine phosphorylation of insulin receptor (FIG. 7B), phospho-Thr^308-protein kinase B (FIG. 7C) and phospho-Ser^473-protein kinase B (FIG. 7D) was measured. […]"}}, "note": "Entries after “also recorded” stand apart in the source; their conditions may differ."}
{"substance": "hexaquis(benzylammonium) decavanadate (V) dihydrate [Entry B6V10]", "values": [{"measurement": "toxicological side effects", "setting": "[1]; at the doses used", "value": "did not show toxicological side effects"}, {"measurement": "hypoglycemia", "setting": "[1]; treated animals", "value": "did not cause hypoglycemia"}, {"measurement": "adipocyte lipolysis", "setting": "adipocyte lipolysis", "value": "inhibited adipocyte lipolysis"}, {"measurement": "glycemia", "setting": "db/db mice", "value": "ameliorated glycemia"}, {"measurement": "glycemia, oral 5 μmol/kg/day", "setting": "[2]; 5 μmol/kg/day for seven days", "value": "moderate decrease of hyperglycemia that was detected after but two days of treatment"}, {"measurement": "glycemia, oral dose increased to 10 μmol/kg/day", "setting": "[2]; 10 μmol/kg/day for an additional ten days", "value": "additional decrease in glycemia"}, {"measurement": "glycemia during chronic oral treatment", "setting": "[2]; daily oral, 17 days (5 then 10 μmol/kg/day), STZ 45 mg/kg rats, dihydrate", "value": "ameliorated hyperglycemia; also recorded: significant correction of hyperglycemia"}, {"measurement": "glycemia", "setting": "[2]; oral treatment, after dose increase to 10 μmol/kg/day", "value": "approximately 250 mg/dl"}, {"measurement": "glucose tolerance and plasma insulin levels", "setting": "[3]", "value": "ameliorated the pattern of plasma insulin levels; also recorded: amelioration of glucose tolerance and improved plasma insulin levels"}, {"measurement": "glycemia during chronic subcutaneous treatment", "setting": "[4]", "value": "ameliorated hyperglycemia; also recorded: significant correction of hyperglycemia; also recorded: significant differences in the B6V10 group compared to the untreated group from day 8 of treatment"}, {"measurement": "glycemia during chronic subcutaneous treatment", "setting": "[4]; listed as hexaquis(benzylammonium) decavanadate", "value": "rapid reduction of the hyperglycemia that was detected after only four days of treatment"}, {"measurement": "glucose transport of adipocytes isolated from treated rats", "setting": "[4]; fourteen days of treatment, basal conditions", "value": "increased glucose transport under basal conditions equivalent to that seen in the presence of insulin"}, {"measurement": "plasma concentrations of free fatty acids, triglycerides and cholesterol", "setting": "diabetic rats", "value": "normalized the plasma concentrations of free fatty acids, triglycerides and cholesterol"}, {"measurement": "tyrosine phosphorylation of insulin receptors", "setting": "insulin receptor", "value": "undetectable"}]}
